Series [1] can be described thus: Lipophilicity determination by RP-HPLC (log k, log D). It counts as physicochemical. The conditions noted are these: for log k: MeOH 72%/H2O 28%; for log D6.5: MeOH 72%/acetate buffered saline pH 6.5; for log D7.4: MeOH 72%/acetate buffered saline pH 7.4. Here is the method:
In addition to the mentioned ADME profile, it is responsible for interactions with biological targets. Lipophilicity is recognized as one of the most important parameters influencing ADME and bioactivity and is also part, e.g., of Lipinski’s Rule of Five (Ro5). This thermodynamic parameter describing the molecule’s affinity for an aqueous or relatively lipophilic environment can be characterized by the logarithm of the partition coefficient (log P). In this study, lipophilicity was measured by reversed-phase high-performance liquid chromatography (RP-HPLC) under isocratic conditions with methanol as the organic modifier in the aqueous mobile phase and the logarithm of the capacity factor k was calculated, which is used as the lipophilicity index converted to the log P scale. In addition to the log k values, the logarithm of the distribution coefficient DpH at pH 6.5 and 7.4 was determined to clarify the behavior of the compounds under physiological conditions and possible ionization. Instead of water, a buffer of suitable pH was used as part of the mobile phase. In addition to the above-mentioned experimental methods, commercially available ChemBioDraw Ultra 13.0 and ACD/Percepta ver. 2012 programs were used to calculate the lipophilicity values of all prepared compounds.
A HPLC separation module Waters Alliance 2695 XE equipped with a Waters Dual Absorbance Detector 2486 (Waters Corp., Milford, MA, USA) was used. A chromatographic column Symmetry® C18 5 μm, 4.6 × 250 mm, Part No. W21751W016 (Waters Corp., Milford, MA, USA) was used. The HPLC separation process was monitored by Empower® 3 Chromatography Manager Software (Waters Corp.). Isocratic elution by a mixture of MeOH p.a. (72%) and H2O-HPLC Mili-Q grade (28%) as a mobile phase was used for the determination of capacity factor k. Isocratic elution by a mixture of MeOH p.a. (72%) and acetate buffered saline (pH 7.4 and pH 6.5) (28%) as a mobile phase was used for the determination of distribution coefficient expressed as D7.4 and D6.5. The total flow of the column was 1.0 mL/min, injection 20 μL, column temperature 40 °C, and sample temperature 10 °C. The detection wavelength of 210 nm was chosen. A KI methanolic solution was used for the determination of the dead times (tD). Retention times (tR) were measured in minutes. The capacity factors k were calculated according to the formula k = (tR − tD)/tD, where tR is the retention time of the solute, and tD is the dead time obtained using an unretained analyte. The distribution coefficients DpH were calculated according to the formula DpH = (tR − tD)/tD. Each experiment was repeated three times.

Series [2] deals with S. aureus, MRSA, E. faecalis, VRE, M. smegmatis, M. marinum. As to the kind of experiment: In vitro antimicrobial screening, all tested strains. The format is cell-based. The conditions noted are these: antibacterial/antimycobacterial screening.
For series [3], the system named is Staphylococcus aureus ATCC 29213. As to the kind of experiment: In vitro antistaphylococcal activity, microtitration broth MIC. The format is cell-based. The conditions noted are these: Staphylococcus aureus.
Series [4] has as its system methicillin-resistant S. aureus (MRSA) 63718. The series is described as above. The note with it: Staphylococcus aureus. The format is cell-based.
For series [5], the system named is methicillin-resistant S. aureus SA 630. The description is as above. It counts as cell-based. The conditions noted are these: Staphylococcus aureus.
The test system of series [6] is methicillin-resistant S. aureus SA 3202. The series is described as above. The format is cell-based. The note with it: Staphylococcus aureus.
Series [7] concerns vancomycin-resistant E. faecalis (VRE) 725B. As to the kind of experiment: In vitro antienterococcal activity, microtitration broth MIC. The format is cell-based, Enterococcus faecalis. The note with it: 24 h.
Series [8] concerns Mycobacterium smegmatis ATCC 700084. Kind of series: In vitro antimycobacterial activity, broth dilution MIC. It counts as cell-based. The note with it: Mycolicibacterium smegmatis.
The test system of series [9] is Mycobacterium marinum CAMP 5644. The description is as above. The format is cell-based. The conditions noted are these: CAMP5644, 504 h.

Each structure is given as a SMILES string. Converted amounts (≈) assume the structure as drawn. Like-named read-outs stand apart in the source and are kept apart here. Bounds are passed on as bounds.

For `O=C(/C=C/c1ccc(Cl)cc1)Nc1ccc(OC(F)(F)F)cc1Br` [1r, (2E)-N-[2-Bromo-4-(trifluoromethoxy)phenyl]-3-(4-chlorophenyl)prop-2-enamide], in [1], the log k is recorded as 1.0278, the “log D6.5” value turned out to be 1.0236 and the “log D7.4” value turned out to be 1.0284. In addition, the “antimicrobial activity (in words)” value in series [2] is on record as “total loss of any effect”.
For `O=C(/C=C/c1ccc(Cl)c(Cl)c1)Nc1ccc(OC(F)(F)F)cc1Br` [2r, (2E)-N-[2-Bromo-4-(trifluoromethoxy)phenyl]-3-(3,4-dichlorophenyl)prop-2-enamide] the same measures were 1.2065, 1.2373, 1.2178 and “total loss of any effect”.
Consider `CC1(C)S[C@@H]2[C@H](NC(=O)[C@H](N)c3ccccc3)C(=O)N2[C@H]1C(=O)O` [AMP, ampicillin, reference compound], for which the MIC in series [3] (ATCC29213, 24 h, S. aureus ATCC 29213, read-out: log(1/MIC [M]) SA (converted)) is 5.75e-06 M (≈ 2.01 µg/mL); in series [3] (ATCC29213, S. aureus ATCC 29213, 24 h, read-out: MIC SA), 5.72e-06 M (≈ 2 µg/mL); in [4] (24 h, MRSA 63718, read-out: log(1/MIC [M]) MRSA1 (converted)), 4.57e-05 M (≈ 16 µg/mL); in [4] (MRSA 63718, 24 h, read-out: MIC MRSA1) it was 4.58e-05 M (≈ 16 µg/mL); in series [5] (24 h, MRSA SA 630, read-out: log(1/MIC [M]) MRSA2 (converted)) it was greater than 4.57e-05 M; in series [5] (MRSA SA 630, 24 h, read-out: MIC MRSA2) it was greater than 4.58e-05 M. For the same compound, the MIC was greater than 4.57e-05 M in series [6] (24 h, MRSA SA 3202, read-out: log(1/MIC [M]) MRSA3 (converted)); greater than 4.58e-05 M in series [6] (MRSA SA 3202, 24 h, read-out: MIC MRSA3); 5.72e-06 M (≈ 2 µg/mL) in series [7] (read-out: MIC VRE3); 5.75e-06 M (≈ 2.01 µg/mL) in series [7] (read-out: log(1/MIC [M]) VRE3 (converted)).
`CO[C@H]1/C=C/O[C@@]2(C)Oc3c(C)c(O)c4c(O)c(c(/C=N/N5CCN(C)CC5)c(O)c4c3C2=O)NC(=O)/C(C)=C\C=C\[C@H](C)[C@H](O)[C@@H](C)[C@@H](O)[C@@H](C)[C@H](OC(C)=O)[C@@H]1C` [RIF, rifampicin, reference compound]: the MIC is 1.94e-05 M (≈ 16 µg/mL) in series [8] (ATCC700084, 72 h, M. smegmatis ATCC 700084, three days, read-out: MIC MS); 1.95e-05 M (≈ 16 µg/mL) in [8] (ATCC700084, M. smegmatis ATCC 700084, read-out: log(1/MIC [M]) MS (converted)); 2.43e-06 M (≈ 2 µg/mL) in series [9] (M. marinum CAMP 5644, 21 days, read-out: MIC MM); 2.45e-06 M (≈ 2.02 µg/mL) in series [9] (M. marinum CAMP 5644, read-out: log(1/MIC [M]) MM (converted)).
